Laboratory results published in ChEMBL document CHEMBL1201862, “PubChem BioAssay data set” (2004).
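Where inhibition never reached the appropriate level, the endpoint shown equals the highest concentration tested. Otherwise, values were interpolated linearly from a five-concentration, 48-hour dose response in 96-well plates. Abbreviation: GI50, concentration required for 50% inhibition of growth.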 Activity calls are given as the source filed them. Rule as the data show it: active = GI50 up to about 1.1 µM and inactive = higher.

Legend:
Test in all cases: NCI anticancer screen, dose series, 48 h
[1] = tested on: UACC-257
[2] = tested on: NCI-H460
[3] = tested on: SK-MEL-5
[4] = tested on: HCT-116
[5] = tested on: HL-60
[6] = tested on: DU-145
[7] = tested on: SNB-75
[8] = tested on: OVCAR-5
[9] = tested on: OVCAR-8
[10] = tested on: SF-295
[11] = tested on: Malme-3M
[12] = tested on: IGROV-1
[13] = tested on: SK-MEL-2
[14] = tested on: SNB-19
[15] = tested on: MCF7
[16] = tested on: CCRF-CEM
[17] = tested on: MDA-N
[18] = tested on: UO-31
[19] = tested on: KM12
[20] = tested on: SR

Measured: GI50

CCCCn1cnc2c(c(CC#N)nn2-c2ccccc2)c1=N
inactive: [1] 35.4 µM | [2] 39.9 µM | [3] 20.9 µM | [4] 48.6 µM | [5] 34 µM | [6] 76 µM | [7] 45.6 µM | [8] > 100 µM | [9] 41.4 µM | [10] 30.4 µM | [11] 63.5 µM | [12] 68.9 µM | [13] 23.7 µM | [14] > 100 µM | [15] 43.2 µM | [16] 47.6 µM | [17] 38.1 µM | [18] 60.4 µM | [19] 43 µM

CCOC(=O)c1csc(NC(=O)CCN2CCOCC2)n1
inactive: [1] 92.9 µM | [2] > 100 µM | [20] 66.2 µM | [3] 67.1 µM | [5] 27.7 µM | [6] 44.7 µM | [8] > 100 µM | [9] 29.8 µM | [10] > 100 µM | [11] 19.3 µM | [12] 41 µM | [13] > 100 µM | [14] > 100 µM | [15] 43.8 µM | [16] 29.6 µM | [17] 59.7 µM | [18] 78.5 µM

Cc1cc2oc(=N)c(C#N)c(C)c2cc1C
inactive: [1] > 100 µM | [2] 46.7 µM | [3] 30.7 µM | [4] 53.1 µM | [5] 33.4 µM | [6] 84.7 µM | [7] 19.1 µM | [8] > 100 µM | [9] 72.3 µM | [10] 44.6 µM | [11] 43 µM | [12] 26.5 µM | [13] 51.8 µM | [14] 83.2 µM | [15] 31.9 µM | [16] 36.6 µM | [17] 96.8 µM | [18] 45.1 µM | [19] 39.9 µM

COC(=O)/C=C/c1cc2c(cc1-c1c(C(=O)O)cc(OC)c(OC)c1OC)OCO2
inactive: [1] > 10 µM | [20] > 10 µM | [3] > 10 µM | [4] > 10 µM | [5] > 10 µM | [6] > 10 µM | [7] > 10 µM | [9] > 10 µM | [10] > 10 µM | [11] > 10 µM | [12] > 10 µM | [14] > 10 µM | [15] > 10 µM | [16] > 10 µM | [17] > 10 µM | [19] > 10 µM

CN1CN(c2ccccc2)C2(CCN(CCC3COc4ccccc4O3)CC2)C1=O (stereo not given)
inactive: [1] 12.5 µM | [20] 20.9 µM | [3] 12.9 µM | [4] 5.92 µM | [5] 19.6 µM | [6] 14.9 µM | [7] 38.2 µM | [8] 18.6 µM | [9] 32.9 µM | [10] 21.4 µM | [11] 19.5 µM | [12] 17.6 µM | [14] 19.9 µM | [15] 5.27 µM | [16] 17.9 µM | [17] 19.8 µM | [18] 13.5 µM | [19] 24.7 µM

Cc1cc(C)c2cc(N)c(Cl)nc2n1
inactive: [1] > 100 µM | [2] 96.4 µM | [3] > 100 µM | [4] > 100 µM | [5] > 100 µM | [6] > 100 µM | [7] > 100 µM | [8] > 100 µM | [9] > 100 µM | [10] > 100 µM | [11] > 100 µM | [12] > 100 µM | [13] > 100 µM | [14] > 100 µM | [15] > 100 µM | [16] > 100 µM | [17] > 100 µM | [18] 63.4 µM | [19] > 100 µM

NC(=O)[N+](=CC(=S)Nc1ccccc1Cl)C(N)=O
inactive: [1] > 100 µM | [2] > 100 µM | [20] 28.7 µM | [3] > 100 µM | [4] > 100 µM | [5] > 100 µM | [6] > 100 µM | [8] > 100 µM | [9] > 100 µM | [10] > 100 µM | [12] > 100 µM | [13] > 100 µM | [14] 71.4 µM | [15] > 100 µM | [16] > 100 µM | [17] > 100 µM | [18] > 100 µM | [19] > 100 µM

CCOC(=O)CC(C)C(C#N)(OP1(=O)OC(c2ccccc2)C(C)N1C)c1ccccc1 (stereo not given)
inactive: [1] 41.3 µM | [2] 47.4 µM | [20] 48.6 µM | [3] 47.6 µM | [4] 50.2 µM | [5] 34.9 µM | [6] 97.5 µM | [8] > 100 µM | [9] 46.1 µM | [10] 46.9 µM | [11] 85.1 µM | [12] 55.2 µM | [13] 34.1 µM | [14] 99.1 µM | [15] 37.8 µM | [16] 29.9 µM | [17] > 100 µM | [18] 35.4 µM | [19] 45.8 µM
